For 37 molecules, IC95 and IC50 results are on record in US20090131494A1, “Non-Nucleoside Reverse Transcriptase Inhibitors” (priority 2005, published 2009).

As a reminder, the IC95 is the concentration needed for an effect of 95%. By IC50 is commonly meant the midpoint of a concentration-inhibition curve.

Each structure is given as a SMILES string. Like-named read-outs stand apart in the source and are kept apart here.

The subject of assay [1] is acute HIV infection of T-lymphoid cells. Kind of assay: Assay for inhibition of HIV replication (spread assay). The assay is classed as cell-based. Conditions: read-out: IC95, inhibition of HIV replication in spread assay. As to the method: An assay for the inhibition of acute HIV infection of T-lymphoid cells (alternatively referred to herein as the “spread assay”) was conducted in accordance with Vacca, J. P. et al., Proc. Natl. Acad. Sci. USA 1994, 91: 4096.

Assay [2] concerns the target T1, mutant HIV reverse transcriptase, K103N mutation (Human immunodeficiency virus type 1 group M subtype B, UniProt P04585, K690N).
T1 construct: made in house
Kind of assay: Analogous RT inhibition assay, K103N mutant. The format is biochemical. The following applies: RT with K103N mutation. As to the method:
Analogous assays were conducted substituting mutant HIV strains to determine the […] inhibition of compounds of the present invention against mutant HIV reverse transcriptase. In one strain the reverse transcriptase has the Y181C mutation and in the other strain the reverse transcriptase has the K103N mutation. The mutations were generated with the […] site-directed mutagenesis kit (Stratagene).

The mark [3] stands for this setting: Human immunodeficiency virus 1, T-lymphoid cells, tested up to 10 micromolar.
[4] abbreviates: Human immunodeficiency virus 1, T-lymphoid.

Take `CCOC(=O)c1[nH]c2ccc(Cl)cc2c1SCC1CCC1` [Example 1, Ethyl 5-chloro-3-(cyclobutylmethylthio)-1H-indole-2-carboxylate]: the IC95 in assay [1] (setting [3]) was ≤ 10 µM.
Turning to `CCOC(=O)c1[nH]c2ccc(Cl)cc2c1SCC(F)(F)F` [Example 2, ethyl 5-chloro-3-[(2,2,2-trifluoroethyl)thio]-1H-indole-2-carboxylate], in assay [1] (setting [3]), the IC95 is > 10 µM.
Consider `CCOC(=O)c1[nH]c2ccc(Cl)cc2c1SCCC(F)(F)F` [Example 3, ethyl 5-chloro-3-[(3,3,3-trifluoropropyl)thio]-1H-indole-2-carboxylate], for which the IC95 in assay [1] (setting [3]) was ≤ 10 µM.
Take `CCOC(=O)c1[nH]c2ccc(Cl)cc2c1SCCCC(F)(F)F` [Example 4, ethyl 5-chloro-3-[(4,4,4-trifluorobutyl)thio]-1H-indole-2-carboxylate]: the IC95 in assay [1] (setting [3]) was > 10 µM.
For `CCOC(=O)c1[nH]c2ccc(Cl)cc2c1SCC(F)(F)C(F)(F)F` [Example 5, ethyl 5-chloro-3-[(2,2,3,3,3-pentafluoropropyl)thio]-1H-indole-2-carboxylate], the concentration for an effect of 95% (IC95) in assay [1] (setting [3]) was ≤ 10 µM.
For `CCOC(=O)c1[nH]c2ccc(Cl)cc2c1SC1CC1` [Example 6, ethyl 5-chloro-3-(cyclopropylthio)-1H-indole-2-carboxylate], the IC95 in assay [1] (setting [3]) is > 10 µM.
Consider `CCOC(=O)c1[nH]c2ccc(Cl)cc2c1SCCC1CC1` [Example 8, ethyl 5-chloro-3-[(2-cyclopropylethyl)thio]-1H-indole-2-carboxylate], for which, in assay [1] (setting [3]), the IC95 is ≤ 10 µM.
As for `CCOC(=O)c1[nH]c2ccc(Cl)cc2c1SC1CCC1` [Example 9, ethyl 5-chloro-3-(cyclobutylthio)-1H-indole-2-carboxylate], in assay [1] (setting [3]), the IC95 is ≤ 10 µM.
Regarding `CCOC(=O)c1[nH]c2ccc(Cl)cc2c1SC1CCCC1` [Example 10, ethyl 5-chloro-3-(cyclopentylthio)-1H-indole-2-carboxylate], the IC95 in assay [1] (setting [3]) was ≤ 10 µM.
`CCOC(=O)c1[nH]c2ccc(Cl)cc2c1SCC1CCCCC1` [Example 11, ethyl 5-chloro-3-[(cyclohexylmethyl)thio]-1H-indole-2-carboxylate]: in assay [1] (setting [4]), the IC95 is ≤ 10 µM.
In the case of `CCOC(=O)c1[nH]c2ccc(Cl)cc2c1SC1CCCCC1` [Example 12, Ethyl 5-chloro-3-(cyclohexylthio)-1H-indole-2-carboxylate], the IC95 in assay [1] (setting [3]) was ≤ 10 µM.
Turning to `CCOC(=O)c1[nH]c2ccc(Cl)cc2c1S(=O)(=O)CC1CCC1` [Example 13, Ethyl 5-chloro-3-(cyclobutylmethylsulfonyl)-1H-indole-2-carboxylate], in assay [1] (setting [3]), the IC95 is ≤ 10 µM.
With `CCOC(=O)c1[nH]c2ccc(Cl)cc2c1S(=O)(=O)CCC(F)(F)F` [Example 14, ethyl 5-chloro-3-[(3,3,3-trifluoropropyl)sulfonyl]-1H-indole-2-carboxylate], the IC95 in assay [1] (setting [3]) is > 10 µM.
As for `CCOC(=O)c1[nH]c2ccc(Cl)cc2c1S(=O)(=O)CCCC(F)(F)F` [Example 15, ethyl 5-chloro-3-[(4,4,4,-trifluorobutyl)sulfonyl]-1H-indole-2-carboxylate], the IC95 in assay [1] (setting [3]) is > 10 µM.
As to `CCOC(=O)c1[nH]c2ccc(Cl)cc2c1S(=O)(=O)C1CC1` [Example 16, ethyl 5-chloro-3-(cyclopropylsulfonyl)-1H-indole-2-carboxylate], the IC95 in assay [1] (setting [3]) was > 10 µM.
On the same count and under the same terms, the result for `CCOC(=O)c1[nH]c2ccc(Cl)cc2c1S(=O)(=O)CC1CC1` [Example 17, ethyl 5-chloro-3-[(cyclopropylmethyl)sulfonyl]-1H-indole-2-carboxylate] reads ≤ 10 µM; that for `CCOC(=O)c1[nH]c2ccc(Cl)cc2c1S(=O)(=O)CCC1CC1` [Example 18, ethyl 5-chloro-3-[(2-cyclopropylethyl)sulfonyl]-1H-indole-2-carboxylate], ≤ 10 µM.
Take `CCOC(=O)c1[nH]c2ccc(Cl)cc2c1S(=O)(=O)C1CCC1` [Example 19, ethyl 5-chloro-3-(cyclobutylsulfonyl)-1H-indole-2-carboxylate]: the IC95 in assay [1] (setting [3]) is > 10 µM.
Turning to `CCOC(=O)c1[nH]c2ccc(Cl)cc2c1S(=O)(=O)C1CCCC1` [Example 20, ethyl 5-chloro-3-(cyclopentylsulfonyl)-1H-indole-2-carboxylate], the IC95 in assay [1] (setting [3]) was > 10 µM.
On to `CCOC(=O)c1[nH]c2ccc(Cl)cc2c1S(=O)(=O)C1CCCCC1` [Example 21, ethyl 5-chloro-3-(cyclohexylsulfonyl)-1H-indole-2-carboxylate], for which the IC95 in assay [1] (setting [3]) was > 10 µM.
Turning to `CCOC(=O)c1[nH]c2ccc(Cl)cc2c1S(=O)(=O)CC1CCCCC1` [Example 22, ethyl 5-chloro-3-[(cyclohexylmethyl)sulfonyl]-1H-indole-2-carboxylate], the IC95 in assay [1] (setting [4]) is ≤ 10 µM.
For `NC(=O)c1[nH]c2ccc(Cl)cc2c1S(=O)(=O)CC1CCC1` [Example 23, 5-Chloro-3-(cyclobutylmethylsulfonyl)-1H-indole-2-carboxamide], the IC95 in assay [1] (setting [3]) was ≤ 10 µM.
On the same count and under the same terms, the result for `NC(=O)c1[nH]c2ccc(Cl)cc2c1S(=O)(=O)CCC(F)(F)F` [Example 24, 5-chloro-3-[(3,3,3-trifluoropropyl)sulfonyl]-1H-indole-2-carboxamide] reads ≤ 10 µM; that for `NC(=O)c1[nH]c2ccc(Cl)cc2c1S(=O)(=O)CCCC(F)(F)F` [Example 25, 5-chloro-3-[(4,4,4-trifluorobutyl)sulfonyl]-1H-indole-2-carboxamide], ≤ 10 µM; that for `NC(=O)c1[nH]c2ccc(Cl)cc2c1S(=O)(=O)C1CC1` [Example 26, 5-chloro-3-(cyclopropylsulfonyl)-1H-indole-2-carboxamide], ≤ 10 µM.
For `NC(=O)c1[nH]c2ccc(Cl)cc2c1S(=O)(=O)CC1CC1` [Example 27, 5-chloro-3-[(cyclopropylmethyl)sulfonyl]-1H-indole-2-carboxamide], in assay [1] (setting [3]), the concentration for an effect of 95% (IC95) was ≤ 10 µM.
Take `NC(=O)c1[nH]c2ccc(Cl)cc2c1S(=O)(=O)CCC1CC1` [Example 28, 5-chloro-3-[(2-cyclopropylethyl)sulfonyl]-1H-indole-2-carboxamide]: the IC95 in assay [1] (setting [3]) is ≤ 10 µM.
In the case of `NC(=O)c1[nH]c2ccc(Cl)cc2c1S(=O)(=O)C1CCC1` [Example 29, 5-chloro-3-(cyclobutylsulfonyl)-1H-indole-2-carboxamide], the IC95 in assay [1] (setting [3]) is ≤ 10 µM.
Still for that read-out and setting: the result for `NC(=O)c1[nH]c2ccc(Cl)cc2c1S(=O)(=O)C1CCCC1` [Example 30, 5-chloro-3-(cyclopentylsulfonyl)-1H-indole-2-carboxamide] reads ≤ 10 µM.
For the molecule `NC(=O)c1[nH]c2ccc(Cl)cc2c1S(=O)(=O)C1CCCCC1` [Example 31, 5-chloro-3-(cyclohexylsulfonyl)-1H-indole-2-carboxamide], the IC95 in assay [1] (setting [3]) was ≤ 10 µM.
Regarding `NC(=O)c1[nH]c2ccc(Cl)cc2c1S(=O)(=O)C1C=CCCC1` (stereo not drawn) [Example 32, 5-chloro-3-(cyclohex-2-en-1-ylsulfonyl)-1H-indole-2-carboxamide], in assay [1] (setting [3]), the IC95 was ≤ 10 µM.
As to `NC(=O)c1[nH]c2ccc(Cl)cc2c1S(=O)(=O)CC1CCCCC1` [Example 33, 5-chloro-3-[(cyclohexylmethyl)sulfonyl]-1H-indole-2-carboxamide], in assay [1] (setting [4]), the IC95 was ≤ 10 µM.
Take `CC(CC(F)(F)F)S(=O)(=O)c1c(C(N)=O)[nH]c2ccc(Cl)cc12` (stereo not drawn) [Example 34, 5-chloro-3-[(3,3,3-trifluoro-1-methylpropyl)sulfonyl]-1H-indole-2-carboxamide]: the IC95 in assay [1] (setting [3]) was ≤ 10 µM.
`NC(=O)c1[nH]c2ccc(Cl)cc2c1S(=O)(=O)CC1CC(F)(F)C1(F)F` (stereo not drawn) [Example 37]: the 95% effect concentration (IC95) in assay [1] (setting [3]) is ≤ 10 µM.
Still for that read-out and setting: the result for `NC(=O)c1[nH]c2ccc(Cl)cc2c1S(=O)(=O)CC(F)(F)C(F)F` [Example 38, 5-chloro-3-[(2,2,3,3-tetrafluoropropyl)sulfonyl]-1H-indole-2-carboxamide] reads > 10 µM.
Consider `CC(C)CCS(=O)(=O)c1c(C(=O)NCc2nccn2C)[nH]c2ccc(Cl)cc12` [Example 39, 5-Chloro-3-[(3-methylbutyl)sulfonyl]-N-[(1-methyl-1H-imidazol-2-yl)methyl]-1-indole-2-carboxamid-indole-2-carboxamide], for which the IC50 in assay [2] is < 2000 nM. Besides, the IC95 in assay [1] (setting [3]) is ≤ 10 µM.
For `CC(C)CCS(=O)(=O)c1c(C(=O)NCc2n[nH]c3ccccc23)[nH]c2ccc(Cl)cc12` [Example 40, 5-Chloro-N-(1H-indazol-3-ylmethyl)-3-[(3-methylbutyl)sulfonyl]-1H-indole-2-carboxamide], in that order: < 2000 nM and ≤ 10 µM.
